Laboratory results from the supplement of paper PMC10307832.

Tests used:
Assay in all cases: relative viability (nuclei count vs DMSO), 5 days (fraction); higher = more cells survive
[1] = compound: C1=CC=C(C(=C1)C2=CC=C(C=C2)C3=CSC4=C3C(=C(C(=O)N4)C#N)O)O + Cc1nc(NC(=O)N2CCC[C@H]2C(N)=O)sc1-c1ccnc(C(C)(C)C(F)(F)F)c1 [Alpelisib] (partner 2 µM)
In short: (§1)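 Lung cancer cell lines were seeded in 1536-well plates and dosed by pin tool the next day, with either a single drug or a fixed anchor-drug dose combined with five library-drug doses (not always all listed) spaced in √10 steps. Five days later, one step fixed the cells and stained their nuclei (final 0.05% Triton X-100, 1% formaldehyde, 1 ug/ml Hoechst), and nuclei were counted on 4× images. Relative viability is the nuclei count in treated wells divided by the count in vehicle wells, and each value is the median of duplicate plates.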

[2] = compound: C1=CC=C(C(=C1)C2=CC=C(C=C2)C3=CSC4=C3C(=C(C(=O)N4)C#N)O)O + O=C(c1cc(Cc2n[nH]c(=O)c3ccccc23)ccc1F)N1CCN(C(=O)C2CC2)CC1 [Olaparib] (partner 8 µM)
In short: as §1

[3] = compound: C1=CC=C(C(=C1)C2=CC=C(C=C2)C3=CSC4=C3C(=C(C(=O)N4)C#N)O)O + C[C@]1(O)C[C@@H](c2nc(-c3ccc4ccc(-c5ccccc5)nc4c3)c3c(N)nccn32)C1 [Linsitinib] (partner 1 µM)
In short: as §1

[4] = compound: C1=CC=C(C(=C1)C2=CC=C(C=C2)C3=CSC4=C3C(=C(C(=O)N4)C#N)O)O + C[C@@H](Oc1cc(-c2cnn(C3CCNCC3)c2)cnc1N)c1c(Cl)ccc(F)c1Cl [Crizotinib] (partner 1 µM)
In short: as §1

Cell Line | relative viability ([1]; first compound 0.08 µM) | relative viability ([1]; first compound 0.253 µM) | relative viability ([1]; first compound 0.8 µM) | relative viability ([1]; first compound 2.53 µM) | relative viability ([1]; first compound 8 µM) | relative viability ([2]; first compound 0.08 µM) | relative viability ([2]; first compound 0.253 µM) | relative viability ([2]; first compound 0.8 µM) | relative viability ([2]; first compound 2.53 µM) | relative viability ([2]; first compound 8 µM) | relative viability ([3]; first compound 0.08 µM) | relative viability ([3]; first compound 0.253 µM) | relative viability ([3]; first compound 0.8 µM) | relative viability ([3]; first compound 2.53 µM) | relative viability ([3]; first compound 8 µM) | relative viability ([4]; first compound 0.08 µM) | relative viability ([4]; first compound 0.253 µM) | relative viability ([4]; first compound 0.8 µM) | relative viability ([4]; first compound 2.53 µM) | relative viability ([4]; first compound 8 µM)
EKVX | 0.786 | 0.995 | 0.838 | 0.953 | 0.851 | 0.98 | 0.929 | 0.778 | 0.856 | 0.716 | 0.751 | 1.28 | 0.883 | 1.1 | 0.779 | 0.947 | 1.06 | 0.824 | 1.36 | 0.803
EMC-BAC-2 | 0.711 | 0.73 | 0.748 | 0.821 | 0.697 | 0.48 | 0.58 | 0.438 | 0.484 | 0.496 | 0.759 | 0.853 | 0.837 | 0.811 | 0.77 | 0.741 | 0.824 | 0.632 | 0.821 | 0.644
EPLC-272H | – | 1.06 | 0.978 | 0.977 | 0.76 | 0.665 | 0.753 | 0.856 | 0.917 | 0.509 | – | 1.46 | 1.23 | 1.24 | 0.888 | – | 1.04 | 0.839 | 0.891 | 0.796
H3255 | 0.799 | 0.778 | 0.68 | 0.687 | 0.563 | 0.612 | 0.67 | 0.524 | 0.624 | 0.574 | 0.912 | 1.06 | 0.854 | 0.967 | 0.78 | 0.806 | 1.01 | 0.723 | 0.873 | 0.815
HARA | – | 0.84 | 0.796 | 0.932 | 0.655 | 0.687 | 1.55 | 0.727 | 1.1 | 0.762 | – | 1.68 | 0.998 | 1.07 | 0.774 | – | 1.51 | 1.1 | 1.05 | 0.842
HCC-15 | 0.976 | 1.03 | 0.943 | 1.01 | 0.819 | 0.797 | 0.789 | 0.705 | 0.728 | 0.802 | 0.914 | 0.844 | 0.985 | 0.918 | 0.871 | 0.696 | 0.885 | 0.855 | 0.886 | 0.692
HCC-44 | 0.661 | 0.796 | 0.767 | 0.86 | 0.663 | 0.979 | 1.14 | 1.01 | 1.01 | 0.887 | 0.587 | 0.84 | 0.66 | 0.715 | 0.58 | 0.845 | 0.833 | 0.754 | 0.901 | 0.625
HCC-78 | 0.286 | 0.485 | 0.296 | 0.29 | 0.349 | 0.815 | 1.4 | 0.91 | 0.787 | 0.711 | 0.534 | 0.73 | 0.551 | 0.484 | 0.462 | 0.374 | 0.423 | 0.443 | 0.343 | 0.3
HCC-366 | 0.506 | 0.491 | 0.431 | 0.441 | 0.367 | – | 0.384 | 0.369 | 0.41 | 0.302 | 0.819 | 0.786 | 0.795 | 0.657 | 0.451 | 0.245 | 0.779 | 0.614 | 0.599 | 0.285
HCC-827 | 1.09 | 1.01 | 0.993 | 1.06 | 1.06 | 0.739 | 0.65 | 0.59 | 0.662 | 0.622 | 1.02 | 1.04 | 0.995 | 0.993 | 0.955 | 1.02 | 0.959 | 0.965 | 1.03 | 0.926
HOP-62 | 0.905 | 0.774 | 0.709 | 1.05 | 0.573 | 0.592 | 0.471 | 0.515 | 0.844 | 0.233 | 1.19 | 1.15 | 0.97 | 1.05 | 0.736 | 0.901 | 1.14 | 0.983 | 1.04 | 0.783
IA-LM | 0.549 | 0.879 | 0.626 | 0.75 | 0.374 | 0.799 | 0.967 | 0.9 | 0.799 | 0.771 | 0.479 | 1.9 | 0.198 | 0.855 | 0.376 | 0.826 | 0.914 | 0.714 | 0.882 | 0.439
LC-2-ad | 0.803 | 0.943 | 1 | 1 | 0.965 | 0.702 | 0.899 | 0.701 | 0.744 | 0.76 | 0.894 | 0.889 | 0.805 | 0.876 | 0.751 | 0.42 | 0.489 | 0.452 | 0.49 | 0.438
LCLC-97TM1 | 0.251 | 0.346 | 0.265 | 0.225 | 0.173 | 0.223 | 0.357 | 0.431 | 0.429 | 0.445 | 0.197 | 0.203 | 0.222 | 0.198 | 0.164 | 0.428 | 0.65 | 0.495 | 0.271 | 0.191
LCLC-103H | 0.948 | 0.881 | 1.05 | 0.981 | 0.869 | 0.605 | 0.684 | 0.789 | 0.832 | 0.718 | 1.11 | 1.22 | 0.984 | 1.08 | 0.869 | 1.09 | 1.17 | 0.967 | 1.18 | 1.02
LK-2 | – | – | 0.906 | 1 | 1.06 | 0.568 | 0.899 | 0.883 | 0.822 | 0.753 | 0.34 | 0.553 | 0.479 | 0.717 | 0.344 | – | – | 0.236 | 0.21 | 0.296
LOU-NH91 | 0.678 | 0.789 | 0.721 | 0.663 | 0.67 | 0.877 | 1.01 | 0.872 | 0.959 | 0.877 | 0.903 | 1.06 | 0.878 | 0.911 | 0.89 | 0.718 | 0.772 | 0.792 | 0.667 | 0.704
